Measurements reported in patent publication US11427544B2, “Histone deacetylase 6 inhibitors and use thereof” (TAIPEI MEDICAL UNIVERSITY, priority 2016, dated 2022).
Structures can show the parent of a compound that is named as a salt.

How the values were obtained:
[1] = test system: Aβ42 production in pCAX APP 695 plasmid-transfected Neuro 2a and SH—SYSY cells; experiment: Aβ42 production in cell culture supernatants; format: cell-based; details: pCAX APP 695 transfected Neuro 2a and SH—SYSY cells; 0.1-10 μM, 24 hours
Protocol: (§1) A study was conducted to evaluate the effect of compounds of Formula (I) in amyloid precursor protein (APP) levels and Aβ42 production.
Moreover, neuro 2a or SH—SYSY cells (1×10^5) were transfected with pCAX APP 695 plasmid for 24 hours, followed by incubation with Compound 12 or Compound 28 (0.1-10 μM) for another 24 hours. Cell culture supernatants were assayed for Aβ42 production.

[2] = test system: scopolamine-induced memory deficit; experiment: Water maze test, scopolamine-treated rats; format: in vivo; details: gavage twice daily for seven days; scopolamine 1.5 mg/kg i.p.
Protocol: An in vivo study was conducted to evaluate the efficacy of compounds of Formula (I) in improving memory deficits associated with Alzheimer's disease.
(§2) Compound 12, Compound 28, suberanilohydroxamic acid (50 mg/kg) or vehicle was given to rats by gavage twice daily for seven days prior to behavioral experiments. On the day conducting a behavior assessment, rats in all groups except the control group were administered scopolamine (1.5 mg/kg) by intraperitoneal injection for 30 minutes before the assessment, then a water maze test or an elevated plus maze test was performed.

[3] = test system: APP in pCAX APP 695 plasmid-transfected Neuro 2a cells; experiment: Amyloid precursor protein (APP) levels, Western blot; format: cell-based; details: pCAX APP 695 transfected neuro 2a cells; 0.1-10 μM, 24 hours
Protocol: as §1
Neuro 2a cells (1×10^6) in 6-well plates were transfected with pCAX APP 695 plasmid for 24 hours, then incubated for another 24 hours with Compound 12, Compound 28, or tubasatin A (0.1-10 μM). Cells were then harvested and cell lysates were prepared for Western blot analysis of the APP proteins.

[4] = test system: scopolamine-induced memory deficit; experiment: Elevated plus maze test, scopolamine-treated rats; format: in vivo; details: gavage twice daily for seven days; scopolamine 1.5 mg/kg i.p.
Protocol: as §2, with “An in vivo study was conducted to evaluate the efficacy of compounds of Formula (I) in improving memory deficits associated with Alzheimer's disease. Compound 12,” for “Compound 12,”, “was performed. […] The significant reduction in transfer latency time indicated improvement in memory.” for “was performed.”

[5] = test system: A549 lung cancer cell line; experiment: Antiproliferative activity, A549; format: cell-based, human; details: Homo sapiens
Protocol: (§3) A study was conducted to evaluate the inhibitory activity of compounds of Formula (I) in inhibiting HDAC6, antiproliferative activity of test compounds in suppressing cancer cell growth, and selectivity of inhibiting HDAC6 over other HDAC isoforms.
(§4) The study was performed according to the protocol reported in Hsieh et al., Cell Death and Disease, 2014, April; 5:e1166.
(§5) Shown in Table 2 below are antiproliferative activities (measured by their half maximal concentration for inhibiting cell growth, i.e., GI50) of the test compounds against various cancer cell lines.

HDAC6 = biological target: T1, HDAC6 (Homo sapiens, UniProt Q9UBN7); experiment: Fluorogenic HDAC assay, HDAC6; format: biochemical
T1 construct: purchased BPS Bioscience Corp
T1 sequence (Q9UBN7 1-1215): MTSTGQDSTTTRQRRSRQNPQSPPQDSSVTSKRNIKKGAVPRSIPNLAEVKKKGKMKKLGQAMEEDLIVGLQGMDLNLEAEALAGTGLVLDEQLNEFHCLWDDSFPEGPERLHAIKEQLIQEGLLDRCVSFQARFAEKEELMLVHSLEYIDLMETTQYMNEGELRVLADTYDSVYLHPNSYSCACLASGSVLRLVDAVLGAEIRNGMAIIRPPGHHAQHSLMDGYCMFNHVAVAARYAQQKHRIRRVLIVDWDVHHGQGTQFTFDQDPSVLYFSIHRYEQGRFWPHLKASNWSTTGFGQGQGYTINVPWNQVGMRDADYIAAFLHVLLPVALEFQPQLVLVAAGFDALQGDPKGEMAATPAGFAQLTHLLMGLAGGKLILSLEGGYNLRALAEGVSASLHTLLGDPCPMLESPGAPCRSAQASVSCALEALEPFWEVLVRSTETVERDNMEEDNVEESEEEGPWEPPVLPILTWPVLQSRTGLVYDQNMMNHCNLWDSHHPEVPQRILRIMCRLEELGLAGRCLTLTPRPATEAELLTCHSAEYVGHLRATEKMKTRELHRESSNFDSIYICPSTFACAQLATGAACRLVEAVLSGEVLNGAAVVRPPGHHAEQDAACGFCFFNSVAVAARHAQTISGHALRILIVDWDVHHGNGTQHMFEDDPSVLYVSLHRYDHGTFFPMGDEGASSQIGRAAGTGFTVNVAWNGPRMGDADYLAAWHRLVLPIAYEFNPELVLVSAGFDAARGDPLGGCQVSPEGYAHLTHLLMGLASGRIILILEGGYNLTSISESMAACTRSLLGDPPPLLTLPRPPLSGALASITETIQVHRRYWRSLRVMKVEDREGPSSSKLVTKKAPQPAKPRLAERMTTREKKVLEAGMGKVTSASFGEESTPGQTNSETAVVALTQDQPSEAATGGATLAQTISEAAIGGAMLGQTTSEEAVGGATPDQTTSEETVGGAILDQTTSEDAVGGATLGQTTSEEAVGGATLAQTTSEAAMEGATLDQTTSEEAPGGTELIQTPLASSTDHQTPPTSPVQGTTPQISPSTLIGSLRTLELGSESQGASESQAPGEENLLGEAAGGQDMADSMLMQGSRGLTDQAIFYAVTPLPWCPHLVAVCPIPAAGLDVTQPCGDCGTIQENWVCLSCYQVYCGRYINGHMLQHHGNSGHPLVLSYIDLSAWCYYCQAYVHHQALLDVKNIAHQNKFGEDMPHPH
Excerpt: (§6) Of note, there are eighteen human HDACs. Eleven of them, designated as HDAC1-11, are zinc-dependent. Seven of them, designated as Sirt1-7, are NAD+-dependent.
(§7) Fluorogenic HDAC assay kits were used to assess the ability of HDAC inhibitors to inhibit deacetylation of lysine residues on a substrate by recombinant proteins HDAC1, 3, 4, 5, 6, 7, 8, 9 and Sirt1 according to the manufacturer's instructions (BPS Bioscience Corp., San Diego, Calif., USA).

HDAC1 = biological target: T2, HDAC1 (Homo sapiens, UniProt Q13547); experiment: Fluorogenic HDAC assay, HDAC1; format: biochemical; details: recombinant HDAC1; read-out: Enzyme IC50 HDAC1
T2 construct: purchased BPS Bioscience Corp
T2 sequence (Q13547 whole entry): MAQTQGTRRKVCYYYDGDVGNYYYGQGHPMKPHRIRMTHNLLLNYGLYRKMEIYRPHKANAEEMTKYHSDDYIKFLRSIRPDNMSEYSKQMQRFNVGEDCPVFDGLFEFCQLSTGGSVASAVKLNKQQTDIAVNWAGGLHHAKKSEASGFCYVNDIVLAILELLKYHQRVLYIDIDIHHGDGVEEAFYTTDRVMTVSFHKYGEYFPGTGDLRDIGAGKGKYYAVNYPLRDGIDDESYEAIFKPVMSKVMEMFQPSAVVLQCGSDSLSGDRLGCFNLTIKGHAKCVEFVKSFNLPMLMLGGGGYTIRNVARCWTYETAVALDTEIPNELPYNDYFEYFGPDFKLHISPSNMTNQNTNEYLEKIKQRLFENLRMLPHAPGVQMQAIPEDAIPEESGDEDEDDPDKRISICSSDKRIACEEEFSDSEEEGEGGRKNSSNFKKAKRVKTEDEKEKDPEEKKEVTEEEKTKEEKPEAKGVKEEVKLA
Excerpt: as §6, §7

[6] = test system: HL-60 Acute promyelocytic leukemia; experiment: Tumor growth inhibition, HL-60 xenograft; format: in vivo, athymic nude mice; details: 50 mg/kg, qd, intraperitoneal
Protocol: (§8) An in vivo study was conducted to evaluate the efficacy of compounds of Formula (I) in suppressing tumor growth in multiple human cancer types.
(§9) Eight-week-old athymic nude mice were group-housed under conditions of constant photoperiod (12 h light/12 h dark at 21-23° C. and 60-85% humidity) with ad libitum access to sterilized food and water. All animal experiments followed ethical standards, and protocols were reviewed and approved by the Animal Use and Management Committee of National Taiwan University. Each mouse was inoculated subcutaneously with 1×10^6˜1×10^7 human cancer cells in a total volume of 0.1 mL serum-free medium containing 50% Matrigel (BD Biosciences). As tumors became established (˜100 mm^3), mice were randomized to various groups to be treated with pre-determined materials (n=6-8/group): (i) control group: 0.5% DMSO/0.5% Cremophor/90% D5W and (ii) treatment groups: Compounds 12 and 28 at pre-determined doses daily. Mice received treatment by intraperitoneal injection for the duration of the study. Tumors were measured weekly using calipers. Tumor size, in mm^3, was calculated according to the formula: Tumor volume=(w^2×l)/2, where w and 1 respectively represent the width and length (both in mm) of the tumor.

[7] = test system: PC-3 prostate cancer cell line; experiment: Antiproliferative activity, PC-3; format: cell-based, human; details: Homo sapiens
Protocol: as §3, §4, §5

[8] = test system: BJAB Burkitt lymphoma-derived B-cell; experiment: Tumor growth inhibition, BJAB xenograft; format: in vivo, athymic nude mice; details: 50 mg/kg, qd, intraperitoneal
Protocol: as §8, §9

[9] = Safety in ICR mice, 7-day intraperitoneal dosing; format: in vivo; details: 50, 100, and 200 mg/kg intraperitoneally once a day for 7 days, monitored another 7 days
Protocol: In addition, both Compounds 12 and 28 were studied to evaluate their safety in animals.
[…]. The animals were dosed intraperitoneally once a day for 7 days and then monitored for another 7 days. The animals were weighed daily for 1 week and then twice weekly.

[10] = test system: MDA-MB-231 Breast cancer cell line; experiment: Antiproliferative activity, MDA-MB-231; format: cell-based, human; details: MDA-MB-231; mesylate
Protocol: as §3, §4, §5

[11] = test system: T98 Glioblastoma cell line; experiment: Antiproliferative activity, T98; format: cell-based, human; details: T98; mesylate
Protocol: as §3, §4, §5

O=C(NO)c1ccc(CNc2cccc3ncccc23)cc1 [Compound 12, N-hydroxy-4-((quinolin-5-ylamino)methyl)benzamide]
Aβ42 production [1]: decreased Aβ42 production | time spent in the correct quadrant (water maze) [2]: markedly reverse this effect | APP expression [3]: markedly reduced the APP expression | transfer latency time (elevated plus maze) [4]: significantly rescued scopolamine-mediated increase of transfer latency time | GI50 [5]: 5530 ± 240 nM | IC50 (HDAC6): 2.73 nM | IC50 (HDAC1): 2650 nM | % TGI [6]: 72.2% | GI50 [7]: 3280 ± 110 nM | % TGI [8]: 64.5% | tolerability [9]: well tolerated

O=C(NO)c1ccc(CNc2cccc3cccnc23)cc1 [Compound 28-mesylate, N-Hydroxy-4-(quinolin-8-ylaminomethyl)-benzamide mesylate]
GI50 [10]: 1360 ± 250 nM | GI50 [11]: 10800 ± 830 nM
